These results are taken from EP4737453A1, “NOVEL SELENOPHENE DERIVATIVES” (Aigen Sciences Inc., priority 2023, dated 2025).

One test relates to NCI-H358 cell line. As to the kind of experiment: Combination effect with targeted anticancer agent, cell viability (CellTiter-Glo, combination index), H358. The settings on record: H358 cells, 7 days, Example 1 compound 0.0001 to 0.1 µM, Fig. 1. Type of test: cell-based. Here is the method:
Test for evaluating the combination effect of targeted anticancer agent- Cell Viability
In this experimental example, we examined whether the compound according to the present invention has a synergistic effect on cancer cell death when used in combination with a target anticancer agent related to another RAS signal transduction pathway.
NCI-H358 cell line (ATCC catalog no. CRL-5807, USA) or EGFR exon 19 deletion cancer cell line PC-9 (Riken, Japan catalog no. RCB4455) were seeded in a well plate (500 cells per well for H358 and 50 cells per well for PC-9) in RPMI1640 (Gibco, USA catalog no. 22400-089) medium containing 10% fetal bovine serum (Excel Bio, USA catalog no. FSP500) and cultured for one day at 37°C under 5% CO2 conditions. […] Cell survival analysis was performed by luminescence analysis using the Promega CellTiter-Glo Luminescent Cell Viability Assay Kit (Promega, catalog number G7573), and luminescence was measured using a PerkinElmer 2014 EnVision plate reader. The inhibition rate was calculated from the measured relative luminescence value in the same manner as in Experimental Example 3, and the combination index (CI) between the compound of the present invention and the target anticancer agent was calculated using the following equation. […]
A general note: Cellular ATP, detected with luciferase, serves as a proxy for viable cell number.

In test [1] the target is T1, SOS2 and KRAS G12C interaction (Homo sapiens, UniProt Q07890).
T1 sequence (Q07890 1-1332): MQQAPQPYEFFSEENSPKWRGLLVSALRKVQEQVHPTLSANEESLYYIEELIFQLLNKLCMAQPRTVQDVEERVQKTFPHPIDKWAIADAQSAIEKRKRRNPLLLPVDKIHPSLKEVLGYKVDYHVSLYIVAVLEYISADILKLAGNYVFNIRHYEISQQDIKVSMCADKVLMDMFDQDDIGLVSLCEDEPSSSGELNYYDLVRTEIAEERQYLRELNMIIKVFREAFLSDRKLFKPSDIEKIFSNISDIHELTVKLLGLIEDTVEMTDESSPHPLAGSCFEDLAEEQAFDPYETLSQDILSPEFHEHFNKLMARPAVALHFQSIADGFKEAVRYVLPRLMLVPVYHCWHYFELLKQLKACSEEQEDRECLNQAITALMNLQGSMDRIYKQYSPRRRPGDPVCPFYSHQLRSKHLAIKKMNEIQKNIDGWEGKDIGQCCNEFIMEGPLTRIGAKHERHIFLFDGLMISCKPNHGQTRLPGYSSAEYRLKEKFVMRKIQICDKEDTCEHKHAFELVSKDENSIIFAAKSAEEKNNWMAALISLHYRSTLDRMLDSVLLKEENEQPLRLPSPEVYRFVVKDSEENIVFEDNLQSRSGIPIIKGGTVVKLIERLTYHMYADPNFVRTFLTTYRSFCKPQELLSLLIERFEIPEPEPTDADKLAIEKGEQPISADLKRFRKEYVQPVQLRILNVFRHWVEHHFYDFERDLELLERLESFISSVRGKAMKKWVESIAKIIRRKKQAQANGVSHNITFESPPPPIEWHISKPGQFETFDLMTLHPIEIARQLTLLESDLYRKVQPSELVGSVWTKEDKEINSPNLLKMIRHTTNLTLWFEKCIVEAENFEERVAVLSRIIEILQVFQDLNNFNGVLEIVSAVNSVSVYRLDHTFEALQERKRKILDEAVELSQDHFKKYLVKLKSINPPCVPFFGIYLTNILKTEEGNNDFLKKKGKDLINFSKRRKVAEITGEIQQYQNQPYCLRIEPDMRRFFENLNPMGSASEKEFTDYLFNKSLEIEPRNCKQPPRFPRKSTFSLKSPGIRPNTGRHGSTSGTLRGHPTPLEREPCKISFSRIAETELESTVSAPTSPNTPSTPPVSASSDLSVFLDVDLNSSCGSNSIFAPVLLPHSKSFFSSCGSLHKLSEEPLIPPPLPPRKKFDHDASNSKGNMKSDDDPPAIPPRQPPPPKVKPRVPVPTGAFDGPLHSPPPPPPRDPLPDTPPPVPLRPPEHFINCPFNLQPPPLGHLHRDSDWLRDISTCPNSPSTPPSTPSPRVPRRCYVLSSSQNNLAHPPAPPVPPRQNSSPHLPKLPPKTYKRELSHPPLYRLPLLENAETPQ
Format: biochemical.

In test [2] the target is T2, SOS1 and KRAS G12D interaction (Homo sapiens, UniProt Q07889).
T2 sequence (Q07889 564-1049 limits assumed): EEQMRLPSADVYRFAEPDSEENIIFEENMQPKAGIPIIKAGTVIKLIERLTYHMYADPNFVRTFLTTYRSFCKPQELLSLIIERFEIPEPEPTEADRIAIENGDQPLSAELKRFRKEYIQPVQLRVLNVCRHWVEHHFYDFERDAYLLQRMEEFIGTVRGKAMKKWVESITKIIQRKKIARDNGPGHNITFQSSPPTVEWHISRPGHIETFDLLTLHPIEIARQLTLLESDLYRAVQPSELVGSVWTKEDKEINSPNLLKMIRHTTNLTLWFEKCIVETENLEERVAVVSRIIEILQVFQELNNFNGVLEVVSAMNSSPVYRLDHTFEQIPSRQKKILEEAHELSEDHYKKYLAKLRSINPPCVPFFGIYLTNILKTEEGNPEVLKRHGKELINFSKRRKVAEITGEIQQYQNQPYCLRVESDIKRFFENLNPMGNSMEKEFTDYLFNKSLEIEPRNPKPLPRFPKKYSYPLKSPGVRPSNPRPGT
Format: biochemical.

The term IC50 denotes the concentration at which inhibition is half-maximal. In the case of `CNCc1ccccc1-c1c[se]c([C@@H](C)Nc2nc(C)nc3cc(OC)c(OC)cc23)c1` [Example 1, (R)-6,7-dimethoxyl-2-methyl-N-(1-(4-(2-((methylamino)methyl)phenyl)selenophen-2-yl)ethyl)quinazolin-4-amine], the “synergistic effect inhibiting cell growth in combination with sotorasib” value with NCI-H358 cell line (sotorasib 0.001 to 1 µM) is given as “strong synergistic effect”. Further, in the test on NCI-H358 cell line (trametinib 0.001 to 0.1 µM), the “synergistic effect inhibiting cell growth in combination with trametinib” value is “strong synergistic effect”. For the same compound, the concentration for half-maximal inhibition (IC50) in test [1] was 24.6 µM; in test [2] it was 0.0084 µM.
